Reference: article PMC5882164, “A novel calcimimetic agent, evocalcet (MT-4580/KHK7580), suppresses the parathyroid cell function with little effect on the gastrointestinal tract or CYP isozymes in vivo and in vitro” (PLoS ONE, 2018)
Several values for one entry are separate records, joined by “and”; a condition that tells them apart may be missing. Identical values can stand only once. Counter-ions that a name gives are not always drawn.

Key:
[1] = tested on: gastric emptying; test: Evaluation of gastric emptying in rats (phenol red); assay type: in vivo, rat
Description: The study of gastric emptying in rats was performed by referencing a previously reported method. […] The rats were divided into eight body-weight-matched groups (n = 8/group). […] Ten minutes later, 0.05 w/v% phenol red, a non-absorbable marker solution (1.5 mL/body), was orally administered. Thirty minutes after the administration of phenol red, the rats were euthanized by cervical dislocation, and the gastric body clamped at the cardiac and pyloric part of the stomach was obtained. The stomach was homogenized by adding 0.1 M NaOH and centrifugated. The supernatant was mixed with 20 w/v% trichloroacetic acid. After centrifugation, the supernatant was mixed with the same volume of 0.5 mol/L NaOH, and the absorbance was measured at 560 nm. The gastric emptying rate was calculated by the following formula: […]=[1-(opticaldensity[[…])]×100

[2] = tested on: serum PTH; test: Serum PTH reduction in common marmosets; assay type: in vivo, common marmoset; set-up: Serum PTH levels: unit not given here
Description: The study of effect of evocalcet on emesis in common marmoset was performed by referencing a previously reported method. The marmosets (n = 24) used for this study were housed in cages (460 × 600 × 655 mm) with environmental enrichments (wooden perches, swing, and balls) and acclimated for at least 4 weeks. The marmosets were fasted from evening on the day before administration. […] The serum PTH level was measured using a Porcine Intact PTH ELISA kit (Immutopics, Inc., San Clemente, CA, USA). To evaluate the emetic effects in marmosets, evocalcet (50 or 150 μg/kg) or cinacalcet (1500 or 5000 μg/kg) was orally administered (n = 6/drug, dose down titration, n = 12 in total). The observation of emesis was conducted until 4 h after the administration.

[3] = tested on: serum PTH; test: Normal rat study: serum PTH level after oral administration; assay type: in vivo; conditions: normal rats
Description: (§1) After acclimatization, rats were divided into nine groups (n = 10/group) matched in terms of body weight, and their serum PTH and calcium levels. Vehicle, 0.5% (w/v) methyl cellulose (Wako Pure Chemical Industries, Ltd.) solution orally administered to vehicle treatment group rats. Evocalcet (0.03, 0.1, 0.3, or 1 mg/kg), or cinacalcet (1, 3, 10, or 30 mg/kg) were suspended in the vehicle solution and orally administered to each drug treatment group. Blood samples were collected from the tail vein before and at 0.5, 2, 4, 6, 8, and 24 h after the oral administration.
(§2) The serum PTH level was measured using a Rat Intact PTH ELISA kit (Immutopics, Inc., San Clemente, CA). The serum calcium, phosphate and BUN levels were measured using an auto analyzer (Hitachi High-Technologies Corporation., Tokyo, Japan) or the following test kits: the Calcium E-test WAKO, the Phospha C-test WAKO, or the Blood Urea nitrogen B-test WAKO (Wako Pure Chemical Industries, Ltd., Osaka, Japan).

[4] = tested on: serum calcium; test: Normal rat study: serum calcium level after oral administration; assay type: in vivo; set-up: Serum Ca: unit not given here; conditions: normal rats
Description: as §1, §2

[5] = cinacalcet 1 mg/kg oral, 0 h, group mean of 10 rats
[6] = cinacalcet 1 mg/kg oral, 0 h, individual rat
[7] = cinacalcet 1 mg/kg oral, 0.5 h, group mean of 10 rats
[8] = cinacalcet 1 mg/kg oral, 0.5 h, individual rat
[9] = cinacalcet 1 mg/kg oral, 2 h, group mean of 10 rats
[10] = cinacalcet 1 mg/kg oral, 2 h, individual rat
[11] = cinacalcet 1 mg/kg oral, 4 h, group mean of 10 rats
[12] = cinacalcet 1 mg/kg oral, 4 h, individual rat
[13] = cinacalcet 1 mg/kg oral, 6 h, group mean of 10 rats
[14] = cinacalcet 1 mg/kg oral, 6 h, individual rat
[15] = cinacalcet 1 mg/kg oral, 8 h, group mean of 10 rats
[16] = cinacalcet 1 mg/kg oral, 8 h, individual rat
[17] = cinacalcet 1 mg/kg oral, 24 h, group mean of 10 rats
[18] = cinacalcet 1 mg/kg oral, 24 h, individual rat
[19] = cinacalcet 3 mg/kg oral, 0 h, group mean of 10 rats
[20] = cinacalcet 3 mg/kg oral, 0 h, individual rat
[21] = cinacalcet 3 mg/kg oral, 0.5 h, individual rat
[22] = cinacalcet 3 mg/kg oral, 2 h, individual rat
[23] = cinacalcet 3 mg/kg oral, 4 h, individual rat
[24] = cinacalcet 3 mg/kg oral, 6 h, individual rat
[25] = cinacalcet 3 mg/kg oral, 8 h, individual rat
[26] = cinacalcet 3 mg/kg oral, 24 h, individual rat
[27] = single oral dose, vs vehicle group

C[C@@H](NCCCc1cccc(C(F)(F)F)c1)c1cccc2ccccc12 [cinacalcet, Cinacalcet hydrochloride, reference compound]
Gastric Emptying ([1]; 100 mg/kg, group mean): 20.02% | Gastric Emptying ([1]; 100 mg/kg, individual rats): 7.17% and 20.46% and 31.67% and 44.76% and 1.77% and 30.22% and 22.74% and 1.35% | Gastric Emptying ([1]; cinacalcet 10 mg/kg oral, 30 minutes, group mean, n = 8): 55.17% | Gastric Emptying ([1]; cinacalcet 10 mg/kg oral, 30 minutes, individual rats): 44.96% and 61.79% and 57.42% and 52.23% and 44.34% and 52.86% and 67.60% and 60.12% | Gastric Emptying ([1]; cinacalcet 30 mg/kg oral, 30 minutes, group mean, n = 8): 35.72% | Gastric Emptying ([1]; cinacalcet 30 mg/kg oral, 30 minutes, individual rats): 28.35% and 14.64% and 23.99% and 37.69% and 38.94% and 32.71% and 40.60% and 68.85% | Dose inhibiting gastric emptying relative to the dose required for a significant PTH reduction ([1]; oral): approximately 30 fold | Doses that caused a significant delay in gastric emptying ([1]; oral, vs vehicle group): ≥ 30 mg/kg | Serum PTH levels ([2]; 300 μg/kg, 1 h, individual animals): 206.7 and 42.9 and 113.4 | Serum PTH levels ([2]; 300 μg/kg, 1 h, mean): 121.0 | Serum PTH levels ([2]; 300 μg/kg, 4 h, individual animals): 384.2 and 103.1 and 100.2 | Serum PTH levels ([2]; 300 μg/kg, 4 h, mean): 195.8 | Serum PTH levels ([2]; 300 μg/kg, before administration, individual animals): 327.6 and 84.8 and 116.8 | Serum PTH levels ([2]; 300 μg/kg, before administration, mean): 176.4 | Serum PTH levels ([2]; 500 μg/kg, 1 h, individual animals): 66.0 and 160.9 and 28.9 | Serum PTH levels ([2]; 500 μg/kg, 1 h, mean): 85.3 | Serum PTH levels ([2]; 500 μg/kg, 4 h, individual animals): 370.0 and 348.3 and 172.2 | Serum PTH levels ([2]; 500 μg/kg, 4 h, mean): 296.8 | Serum PTH levels ([2]; 500 μg/kg, before administration, individual animals): 370.0 and 298.9 and 61.2 | Serum PTH levels ([2]; 500 μg/kg, before administration, mean): 243.4 | Minimum effective dose on PTH reduction ([2]; oral): 0.5 mg/kg | Serum PTH [3, 5]: 109.720 | Serum PTH [3, 6]: 125.722 and 130.447 and 67.586 and 199.824 and 100.664 and 97.298 and 150.924 and 89.996 and 55.272 and 79.471 | Serum PTH [3, 7]: 80.824 | Serum PTH [3, 8]: 82.661 and 77.184 and 76.842 and 101.034 and 110.106 and 55.958 and 55.844 and 88.538 and 77.412 | Serum PTH [3, 9]: 79.608 | Serum PTH [3, 10]: 48.013 and 15.500 and 63.091 and 101.472 and 98.442 and 56.814 and 145.553 and 109.841 and 112.583 and 44.766 | Serum PTH [3, 11]: 140.908 | Serum PTH [3, 12]: 61.596 and 118.199 and 215.679 and 200.323 and 159.521 and 92.828 and 169.313 and 166.494 and 115.974 and 109.149 | Serum PTH [3, 13]: 165.420 | Serum PTH [3, 14]: 193.418 and 170.704 and 168.342 and 210.841 and 173.065 and 135.125 and 169.319 and 98.407 and 166.633 | Serum PTH [3, 15]: 216.453 | Serum PTH [3, 16]: 174.106 and 258.920 and 229.591 and 209.695 and 192.029 and 200.519 and 209.009 and 246.914 and 151.294 and 292.451 | Serum PTH [3, 17]: 137.047 | Serum PTH [3, 18]: 113.627 and 116.500 and 103.304 and 199.622 and 108.780 and 152.854 and 112.730 and 224.397 and 139.120 and 99.534 | Serum PTH [3, 19]: 102.683 | Serum PTH [3, 20]: 56.632 and 140.686 and 84.483 and 109.613 | Serum PTH [3, 21]: 15.500 and 54.018 | Serum PTH [3, 22]: 42.818 and 15.500 and 32.934 | Serum PTH [3, 23]: 141.716 and 112.265 and 135.633 and 62.560 | Serum PTH [3, 24]: 155.316 and 207.503 and 133.171 | Serum PTH [3, 25]: 158.155 and 206.865 and 189.885 and 126.682 | Serum PTH [3, 26]: 109.678 and 94.507 and 141.634 and 226.462 | Doses that significantly reduced the serum PTH level [3, 27]: ≥ 1 mg/kg | Serum Ca [4, 5]: 11.5 | Serum Ca [4, 6]: 14.6 and 10.4 and 11.2 and 10.8 and 12.0 and 11.0 and 11.4 | Serum Ca [4, 7]: 10.5 | Serum Ca [4, 8]: 10.4 and 10.8 and 10.0 and 10.6 and 10.2 | Serum Ca [4, 9]: 10.3 | Serum Ca [4, 10]: 10.4 and 10.2 and 10.0 and 10.6 | Serum Ca [4, 11]: 9.9 | Serum Ca [4, 12]: 8.0 and 10.2 and 9.8 and 10.4 and 10.0 | Serum Ca [4, 13]: 10.0 | Serum Ca [4, 14]: 9.6 and 9.4 and 10.0 and 10.4 and 10.2 | Serum Ca [4, 15]: 10.1 | Serum Ca [4, 16]: 10.0 and 10.4 and 10.2 and 9.8 | Serum Ca [4, 17]: 12.1 | Serum Ca [4, 18]: 12.2 and 11.8 and 11.2 and 12.6 and 11.4 and 13.0 and 11.0 and 12.4 | Serum Ca [4, 19]: 11.1 | Serum Ca [4, 20]: 11.2 and 9.4 and 11.4 | Serum Ca ([4]; cinacalcet 3 mg/kg oral, 0.5 h, group mean of 10 rats): 10.6 | Serum Ca [4, 21]: 10.8 and 10.6 and 11.2 and 10.2 | Serum Ca ([4]; cinacalcet 3 mg/kg oral, 2 h, group mean of 10 rats): 9.8 | Serum Ca [4, 22]: 9.8 and 8.6 and 10.0 | Serum Ca ([4]; cinacalcet 3 mg/kg oral, 4 h, group mean of 10 rats): 9.3 | Serum Ca [4, 23]: 9.2 and 8.8 and 9.4 | Serum Ca ([4]; cinacalcet 3 mg/kg oral, 6 h, group mean of 10 rats): 9.3 | Serum Ca [4, 24]: 9.4 and 8.8 and 9.6 | Serum Ca ([4]; cinacalcet 3 mg/kg oral, 8 h, group mean of 10 rats): 9.7 | Serum Ca [4, 25]: 9.6 and 9.2 and 9.8 | Serum Ca ([4]; cinacalcet 3 mg/kg oral, 24 h, group mean of 10 rats): 12.1 | Serum Ca [4, 26]: 12.0 and 11.2 and 11.6 | Serum Ca ([4]; cinacalcet 10 mg/kg oral, 0 h, individual rat): 9.6 and 11.4 and 10.6 and 11.2 | Serum Ca ([4]; cinacalcet 10 mg/kg oral, 0.5 h, individual rat): 10.0 and 10.2 and 10.8 and 9.8 | Serum Ca ([4]; cinacalcet 10 mg/kg oral, 2 h, individual rat): 8.6 and 9.6 and 9.4 and 9.2 | Serum Ca ([4]; cinacalcet 10 mg/kg oral, 4 h, individual rat): 8.2 and 9.2 and 8.8 | Serum Ca ([4]; cinacalcet 10 mg/kg oral, 6 h, individual rat): 8.0 and 8.8 and 8.6 | Serum Ca ([4]; cinacalcet 10 mg/kg oral, 8 h, individual rat): 8.6 and 10.4 and 8.4 and 8.8 | Serum Ca ([4]; cinacalcet 10 mg/kg oral, 24 h, individual rat): 11.4 and 11.6 and 11.0 and 10.2 | Doses that significantly reduced the serum calcium level [4, 27]: ≥ 1 mg/kg
